Reference: patent US20230054407A1, “OPTICAL BIOPSY STAIN PANELS AND METHODS OF USE” (ARIZONA BOARD OF REGENTS ON BEHALF OF THE UNIVERSITY OF …, priority 2020, published 2023)

Assays:
[1] = In vitro fluorescence emission spectra and compatibility of nucleic acid and protein/cytoplasm dyes; format: physicochemical; conditions: for source of the resultant fluorescence emission signal of the mixture: Mitoxantrone mixed with Phloxine B at 100:1 molar ratio
Procedure: Additional incompatibility results from overlapping of the component peak emissions.
Daunorubicin (1 μM), Fluorescein (1 nM) and the combination of the two were excited at 375 nm, with resultant fluorescence emission.
With 405 nm excitation, Proflavine at 0.25 μM, Rose Bengal at 10 μM, and the combination result in roughly the same order of magnitude peaks resulting from their respective fluorescence.
FIGS. 8A-8F show emission spectra of various drug dye candidates. FIGS. 8A-8D show Mitoxantrone as a Hematoxylin-alternative candidate at 10 μM, with Phloxine B at 0.1 μM as an Eosin-alternative candidate drug-dye, and a combination of the two excited at different wavelengths: (FIG. 8A) 375 nm, (FIG. 8B) 405 nm, (FIG. 80) 455 nm, and (FIG. 8D) 488 nm. […] Additionally, there was overlap of emission spectra (FIG. 9) and the combination of certain DNA and protein dyes decreased the emission intensity relative to the same concentration of the component dye alone (FIG. 9 and FIG. 10).
The stain panels listed below use a combination of nucleus dyes and protein/cytoplasm dyes that have been optimized for their compatibility.

bovine lung tissue = test: Topical drug-dye staining of ex vivo bovine lung tissue imaged with confocal microscopy; conditions: for localization of drug-dye: ex vivo bovine lung tissue, qualitatively at the concentrations of FIGS. 2A-2D; for staining pattern: single dye applied topically to ex vivo bovine lung tissue, confocal microscopy
Source text: Image field is 635.5 μm tall×wide. Inset is the structure of Proflavine.
Image field is 635.5 μm tall×wide. […]
Imaging was with confocal microscopy, with a bovine lung sample thickness of 10 μm, and an image field of 635.5 μm^2.
Imaging was with confocal microscopy settings at 488 nm excitation after topical application to the bovine lung specimen. Image field is 635.5 μm^2 at 10 μm thickness.
The dyes were pipetted in situ upon bovine tissue ex vivo and examined under confocal microscopy with a 488 nm laser with 10 μm optical thickness and imaged fields being 635.5 μm^2.
Referring to FIG. 1, 50 μl at 20 μM of Proflavine was topically applied directly to ex vivo bovine lung tissue in situ and imaged immediately with confocal microscopy. […] Likewise, Fluorescein, Phenol Red, Phloxine B, and Rose Bengal were each added to ex vivo bovine lung tissue and imaged under confocal microscopy (see FIGS. 2A-2I). […] This combination was then added topically to bovine lung tissue and imaged using confocal microscopy (FIG. 3). […]

[2] = system: human breast cancer metastasized to the lung; test: Staining of human breast cancer metastasized to the lung with Rose Bengal and Proflavine; conditions: Rose Bengal and Proflavine combined, concentrations similar to FIG. 6A

Row | Compound | Approximate peak fluorescence [1] [nm] | staining pattern (bovine lung tissue) | also measured
1 | O=C1c2c(O)ccc(O)c2C(=O)c2c(NCCNCCO)ccc(NCCNCCO)c21 [Mitoxantrone] | ~685 | – | concentration dependence of fluorescence ([1]; 455 nm excitation): concentration-dependent fluorescence; source of the resultant fluorescence emission signal of the mixture ([1]; 375 nm excitation): primarily Mitoxantrone
2 | O=C([O-])c1c(Cl)c(Cl)c(Cl)c(Cl)c1-c1c2cc(Br)c(=O)c(Br)c-2oc2c(Br)c([O-])c(Br)cc12.[Na+].[Na+] [Phloxine B] | ~550 | variable staining of the proteinaceous connective tissue and cellular cytoplasm, granules or vesicles | localization of drug-dye (bovine lung tissue): appeared to localize to cell cytoplasm in addition to the connective tissue fibers; source of the resultant fluorescence emission signal of the mixture ([1]; 488 nm excitation): nearly all the fluorescence emission signal from Phloxine B
3 | O=C([O-])c1c(Cl)c(Cl)c(Cl)c(Cl)c1-c1c2cc(I)c(=O)c(I)c-2oc2c(I)c([O-])c(I)cc12.[Na+].[Na+] [Rose Bengal] | ~565 | variable staining of the proteinaceous connective tissue and cellular cytoplasm, granules or vesicles | localization of drug-dye (bovine lung tissue): appeared to localize to cell cytoplasm in addition to the connective tissue fibers; structure outlined by the stain [2]: proteins
4 | Nc1ccc2cc3ccc(N)cc3nc2c1 [Proflavine] | ~508 | staining like those typical of a fluorescent DNA dye | structure outlined by the stain [2]: nucleus
5 | CN(C)c1ccc2nc3ccc(=[N+](C)C)cc-3sc2c1 [Methylene Blue] | ~695 | – | –
6 | Nc1c(/N=N/c2ccc(-c3ccc(/N=N/c4cc(S(=O)(=O)O)c5ccccc5c4N)cc3)cc2)cc(S(=O)(=O)O)c2ccccc12 [Congo Red] | ~425 | – | –
7 | COc1cccc2c1C(=O)c1c(O)c3c(c(O)c1C2=O)C[C@@](O)(C(C)=O)C[C@@H]3O[C@H]1C[C@H](N)[C@H](O)[C@H](C)O1 [Daunorubicin] | – | – | change of fluorescence emission peak with increasing concentrations of Phloxine B ([1]; 488 nm excitation, peak around 590 nm): progressive decrease of fluorescence emission
